Results taken from patent publication US20170348398A1, “COMPOSITIONS AND METHODS FOR DECREASING BLOOD GLUCAGON LEVELS” (Vanderbilt University, priority 2016, published 2017).

B1: activin A: Recombinant mouse Activin A protein (R&D Biosystems) (protein, UniProt Q04998 309-424, looked up)
Inhibin beta A chain: GLECDGKVNICCKKQFFVSFKDIGWNDWIIAPSGYHANYCEGECPSHIAGTSGSSLSFHSTVINHYRMRGHSPFANLKSCCVPTKLRPMSMLYYDDGQNIIKKDIQNMIVEECGCS
modifications: Inhibin beta A chain

Test system: α-cells
Experiment: in vitro α-cell proliferation assay (cultured mouse islets, cytospin, Ki67+ glucagon+ counting)
Type: cell-based
Settings: for α-cell proliferation when the amino acid is lowered to Gcgr+/+ serum levels: all other amino acids kept at high (Gcgr−/− serum) concentrations; for linear regression of amino acid concentration in media versus α-cell proliferation: media conditions of Table 1; for alpha cell proliferation at high levels of the amino acid: high levels of the single amino acid
From the text: To maximize the ability to quantify proliferating α-cells intact mouse islets were first cultured in media supplemented with Gcgr−/− or Gcgr+/+ mouse serum, dispersing the islets into cells, and then the cells centrifuged into a focused monolayer of cells using a cytospin centrifuge (FIG. 1A). […] To further maximize the throughput of this assay, a cytonuclear algorithm was developed to automate quantification of α-cell proliferation in cytospin islet images (FIG. 7C).
Pancreatic islets were isolated from male 8-14 week old C57B16/J mice (Jackson Laboratory, ME) and cultured in various media conditions for 3 days. […] For complete amino acid content in each media condition, see Table 1. For serum fractionation, serum was centrifuged for 1 hour at 2000×g at room temperature in a 10 kDa molecular weight cutoff spin column (Millipore, Billerica, Mass.). […] For lipid removal, serum was treated with Cleanascite reagent (Biotech Support Group, Monmouth Junction, N.J.) prior to islet culture at a 1:1 ratio according to the vendor's protocol.
Dispersed islet cells were recovered by centrifugation in RPMI media containing 5.6 mM glucose, 10% FBS, and 1% Penicillin/Streptomycin. The resulting cell pellet was resuspended in 100 ul of media and centrifuged onto a glass slide using a cytospin (Thermo Scientific, Waltham, Mass.) centrifuge. Air-dried slides were stored at −80° C. until use, thawed, and immediately fixed in 4% paraformaldehyde before immunocytochemistry. Slides were mounted with Aqua-Poly/Mount (Warrington, Pa.).
Cytospin slides were imaged using a Leica Microsystems Epifluorescent Microscope DM1 6000B. Tiled images were analyzed by a cytonuclear algorithm developed using the […] Software package (Indica Labs) (FIG. 7A). A glucagon surface was created by mapping glucagon immunoreactivity. DAPI and Ki67 positive cells were identified using a spot mapping algorithm. α-cells were identified by masking the glucagon surface on the DAPI staining and then creating a pseudospot where each α-cell was identified. Colocalization was determined by coregistering glucagon pseudospots with Ki67 spots. Each image was then manually checked for accuracy. For all islet culture experiments, a minimum of 500 α-cells counted per replicate (i.e. n=1) were required to be included in an experiment.

Row | Molecule | alpha cell proliferation at high levels of the amino acid | further results
1 | NC(=O)CC[C@H](N)C(=O)O [L-glutamine] |  | α-cell proliferation when the amino acid is lowered to Gcgr+/+ serum levels: abolished the stimulation of α-cell proliferation; non α-cell proliferation (cultured mouse islets, 3 days): no effect; α-cell proliferation (cultured mouse islets, 3 days): in a dose-dependent fashion increased α-cell proliferation; linear regression of amino acid concentration in media versus α-cell proliferation: significantly and positively correlated
2 | N[C@@H](Cc1c[nH]cn1)C(=O)O [histidine] | not | 
3 | N[C@@H](Cc1ccc(O)cc1)C(=O)O [tyrosine] | not | 
4 | NCCCC[C@H](N)C(=O)O [lysine] | not | 
5 | N=C(N)NCCC[C@H](N)C(=O)O [arginine] | stimulated alpha cell proliferation | 
6 | N[C@@H](CO)C(=O)O [serine] | not | 
7 | NCC(=O)O [glycine] | not | 
8 | NC(=O)C[C@H](N)C(=O)O [asparagine] | not | 
9 | CC[C@H](C)[C@H](N)C(=O)O [isoleucine] | not | 
10 | O=C(O)[C@@H]1CCCN1 [proline] | not | 
11 | CC(C)C[C@H](N)C(=O)O [L-leucine] |  | α-cell proliferation when the amino acid is lowered to Gcgr+/+ serum levels: not required for increased α-cell proliferation; linear regression of amino acid concentration in media versus α-cell proliferation: significantly and positively correlated
12 | NCCC[C@H](N)C(=O)O [ornithine] | not | α-cell proliferation (cultured mouse islets, 3 days): failed to stimulate α-cell proliferation
13 | N[C@@H](CCC(=O)O)C(=O)O [L-glutamic acid] |  | α-cell proliferation when the amino acid is lowered to Gcgr+/+ serum levels: not required for increased α-cell proliferation; linear regression of amino acid concentration in media versus α-cell proliferation: significantly and positively correlated
14 | CSCC[C@H](N)C(=O)O [methionine] | not | 
15 | C[C@H](N)C(=O)O [alanine] | not | α-cell proliferation (cultured mouse islets, 3 days): failed to stimulate α-cell proliferation
16 | NC(=O)NCCC[C@H](N)C(=O)O [Citrulline] |  | α-cell proliferation (cultured mouse islets, 3 days): failed to stimulate α-cell proliferation
17 | CC(C)[C@H](N)C(=O)O [valine] | not | 
18 | B1 |  | α-cell proliferation (cultured mouse islets, 3 days): did not stimulate α-cell proliferation
